In publication PMC5642474, “Pre-clinical pharmacology of AZD3965, a selective inhibitor of MCT1: DLBCL, NHL and Burkitt’s lymphoma anti-tumor activity” (Oncotarget, 2017):

Columns and labels:
MCT1 = target: T1, MCT1 (Homo sapiens, UniProt P53985); assay: SPA competition binding, […]-MCT1 ligand displacement on Jurkat cell membranes; also Ki […] on recombinant human MCT1 yeast membranes; details: read-out: AZD3965
T1 construct: gene SLC16A1
T1 sequence (P53985 1-500): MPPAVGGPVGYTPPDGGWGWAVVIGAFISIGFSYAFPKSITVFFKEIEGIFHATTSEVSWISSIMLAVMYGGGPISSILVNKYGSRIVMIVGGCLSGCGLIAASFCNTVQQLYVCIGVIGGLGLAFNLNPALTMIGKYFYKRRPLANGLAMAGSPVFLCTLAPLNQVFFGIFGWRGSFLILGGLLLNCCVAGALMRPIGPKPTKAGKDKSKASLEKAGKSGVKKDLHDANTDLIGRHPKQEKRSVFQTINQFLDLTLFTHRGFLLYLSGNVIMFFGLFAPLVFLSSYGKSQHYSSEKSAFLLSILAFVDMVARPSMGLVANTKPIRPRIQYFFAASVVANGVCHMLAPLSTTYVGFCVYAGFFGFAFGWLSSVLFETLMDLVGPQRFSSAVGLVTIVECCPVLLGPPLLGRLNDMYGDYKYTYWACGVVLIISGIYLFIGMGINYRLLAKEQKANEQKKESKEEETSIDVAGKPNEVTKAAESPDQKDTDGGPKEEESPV

MCT2 = target: T2, MCT2 (Homo sapiens, UniProt O60669); details: read-out: AZD3965
T2 construct: gene SLC16A7
T2 sequence (O60669 whole entry): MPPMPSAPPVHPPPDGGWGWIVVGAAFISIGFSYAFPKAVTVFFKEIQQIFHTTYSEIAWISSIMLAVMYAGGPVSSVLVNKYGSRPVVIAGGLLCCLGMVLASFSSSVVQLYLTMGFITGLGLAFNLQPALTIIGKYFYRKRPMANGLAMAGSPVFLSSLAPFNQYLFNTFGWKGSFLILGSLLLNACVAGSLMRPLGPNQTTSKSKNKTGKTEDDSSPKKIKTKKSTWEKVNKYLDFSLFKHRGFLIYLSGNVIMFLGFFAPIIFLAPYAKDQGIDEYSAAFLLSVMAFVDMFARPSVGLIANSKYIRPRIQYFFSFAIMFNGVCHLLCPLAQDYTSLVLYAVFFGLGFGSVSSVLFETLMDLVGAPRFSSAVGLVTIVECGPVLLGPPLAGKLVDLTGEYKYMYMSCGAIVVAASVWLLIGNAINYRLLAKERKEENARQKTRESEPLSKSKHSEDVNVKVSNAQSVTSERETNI

Ki (MCT1): 0.0016 µM
Ki (MCT2): 0.02 µM
Structure (SMILES): Cc1[nH]nc(C(F)(F)F)c1Cc1sc2c(c1C(=O)N1C[C@](C)(O)CO1)c(=O)n(C)c(=O)n2C(C)C [AZD3965]
